Laboratory results: patent US20090275497A1, “METHOD FOR IDENTIFYING MODULATORS OF THE ACTIVITY OF ION-CHANNELS RECEPTORS” (CENTRE NATIONAL DE LA RECHERCHE SCIENTIFIQUE (CNRS), priority 2004, published 2009)

Columns and labels:
rat P2X2 receptors = target: T1, rat P2X2 receptors (Rattus norvegicus, UniProt P49653); assay: Calcium green fluorescence recording, oocytes expressing P2X2 receptors alone; format: cell-based; conditions: oocytes expressing only P2X2 receptors, FIG. 2; for fluorescence (calcium influx) on application of the substance alone: calcium green probe
T1 construct: expressed in transfected cells; host or cells: Xenopus oocytes (nuclear cDNA injection)
T1 sequence (P49653 1-472): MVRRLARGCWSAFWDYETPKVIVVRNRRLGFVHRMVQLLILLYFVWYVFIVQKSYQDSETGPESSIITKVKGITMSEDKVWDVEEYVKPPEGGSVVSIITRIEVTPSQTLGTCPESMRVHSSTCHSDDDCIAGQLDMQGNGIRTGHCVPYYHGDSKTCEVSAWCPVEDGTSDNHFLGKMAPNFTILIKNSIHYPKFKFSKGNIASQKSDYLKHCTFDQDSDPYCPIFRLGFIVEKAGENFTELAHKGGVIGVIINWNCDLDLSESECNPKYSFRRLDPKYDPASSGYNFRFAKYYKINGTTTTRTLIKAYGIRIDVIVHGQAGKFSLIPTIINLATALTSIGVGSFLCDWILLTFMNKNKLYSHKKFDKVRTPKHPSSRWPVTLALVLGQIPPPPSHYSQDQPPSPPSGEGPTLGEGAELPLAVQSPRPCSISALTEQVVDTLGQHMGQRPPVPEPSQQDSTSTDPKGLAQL
Description: (§1) Then, using video-microscopy (Nikon), the fluorescence emitted by oocytes maintained in a standard solution (Ringer solution containing 1.8 mM calcium chloride), perfused at 3 ml/min, has been recorded. […] Variations in fluorescence were analysed using IpLab software.

[1] = test system: P2X2 and GABA-A receptors (rat GABA-A alpha2 beta3); format: cell-based; conditions: for fluorescence of the calcium probe on application of the substance alone: 100 μM, oocytes co-expressing P2X2 and GABA-A receptors, resting potential
Description: (§2) Variations in fluorescence were analysed using IpLab software.

[2] = test system: oocyte not expressing P2X and GABA receptors; assay: Calcium green fluorescence recording, oocytes expressing no receptors; format: cell-based, Xenopus; conditions: calcium green probe, FIG. 1
Description: as §1

[3] = target: T2, P2X2 and GABA-A receptors (rat GABA-A alpha2 beta3) (Rattus norvegicus, UniProt P23576+P63079); format: cell-based
T2 construct: expressed in transfected cells; host or cells: Xenopus oocytes (nuclear cDNA injection)
Description: as §2

[4] = oocyte co-expressing GABA-A and P2X2 receptors, FIG. 4

T2 sequence (P23576 29-451): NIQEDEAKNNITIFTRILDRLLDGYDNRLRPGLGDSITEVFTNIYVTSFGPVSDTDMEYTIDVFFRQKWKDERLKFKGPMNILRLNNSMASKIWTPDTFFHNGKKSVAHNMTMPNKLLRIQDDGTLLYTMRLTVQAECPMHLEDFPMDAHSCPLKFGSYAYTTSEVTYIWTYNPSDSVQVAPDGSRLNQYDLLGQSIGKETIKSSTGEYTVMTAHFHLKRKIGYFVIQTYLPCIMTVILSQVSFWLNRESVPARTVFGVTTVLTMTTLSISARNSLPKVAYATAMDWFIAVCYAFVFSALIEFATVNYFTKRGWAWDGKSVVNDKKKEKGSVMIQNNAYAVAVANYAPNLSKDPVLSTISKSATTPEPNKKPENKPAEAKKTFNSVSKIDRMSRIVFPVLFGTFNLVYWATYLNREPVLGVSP
T2 sequence (P63079 26-473): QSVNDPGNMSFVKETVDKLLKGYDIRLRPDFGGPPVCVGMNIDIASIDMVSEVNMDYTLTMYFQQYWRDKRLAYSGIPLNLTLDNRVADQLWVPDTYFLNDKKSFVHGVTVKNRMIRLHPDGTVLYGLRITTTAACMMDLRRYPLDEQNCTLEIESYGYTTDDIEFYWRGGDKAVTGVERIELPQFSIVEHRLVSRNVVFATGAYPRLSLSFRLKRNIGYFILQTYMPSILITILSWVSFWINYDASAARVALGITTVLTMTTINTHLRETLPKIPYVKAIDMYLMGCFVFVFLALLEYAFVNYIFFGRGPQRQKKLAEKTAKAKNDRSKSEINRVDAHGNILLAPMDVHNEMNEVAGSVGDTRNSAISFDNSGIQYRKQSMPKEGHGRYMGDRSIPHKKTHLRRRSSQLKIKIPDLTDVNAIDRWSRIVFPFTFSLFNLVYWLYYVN

Row | effect of GABA on the increase in fluorescence induced by ATP (rat P2X2 receptors; co-application ATP+GABA) | calcium response on co-application ATP+GABA compared with ATP alone ([1]; ATP+GABA 100 μM of each, FIG. 3) | percentage inhibition of the ATP calcium response ([3]; co-application ATP+GABA 100 μM of each, depends on expression ratio of P2X and GABA receptors) | fluorescence intensity when GABA is applied at the peak of the ATP response [3, 4] | fluorescence when application of GABA is stopped during co-application of ATP and GABA [3, 4] | Structure (SMILES) | fluorescence (calcium influx) on application of the substance alone (rat P2X2 receptors) | fluorescence of the calcium probe on application of the substance alone [1] | modification of the fluorescence on application [2]
1 | – | – | – | – | – | Nc1ncnc2c1ncn2[C@@H]1O[C@H](COP(=O)(O)OP(=O)(O)OP(=O)(O)O)[C@@H](O)[C@H]1O [ATP] | transient increase in fluorescence | marked transient increase | No modification
2 | not altered | lower calcium response | 20-25% | decrease in fluorescence intensity | increase in fluorescence | NCCCC(=O)O [GABA, gamma-Aminobutyric acid] | no effect | does not modify fluorescence intensity | No modification
